Earlier results in patent publication US20230104874A1, “HERBAL PREPARATION FOR PREVENTION AND TREATMENT OF HELICOBACTER PYLORI INFECTION” (HerbElixa DOO BEOGRAD- NOVI BEOGRAD, priority 2020, published 2023).

Key:
Gram negative bacteria = details: Korona-Glowniak et al. 2020
H. pylori = details: literature

Row | SMILES | antibacterial activity against Gram negative bacteria (Gram negative bacteria) | anti-H. pylori activity in vitro (H. pylori)
1 | Cc1ccc(C(C)C)cc1 [p-cymene] | no antibacterial activity | 
2 | Cc1ccc(C(C)C)c(O)c1 [thymol] |  | high bactericidal activity
3 | Cc1ccc(C(C)C)cc1O [carvacrol] |  | bactericidal activity
4 | CC1=CCC(C(C)C)=CC1 [γ-terpinene] | no antibacterial activity | 
